According to ChEMBL document CHEMBL3045765, “Quantitative structure-fungitoxicity relationships of some monohydric alcohols” (J Agric Food Chem, 2003):

Key:
[1] = test system: Colletotrichum gloeosporioides; test: Fungitoxicity against Colletotrichum gloeosporioides assessed as mycelial growth inhibition by poisoned food technique; type: functional, organism-based; conditions: for minimal effective concentration: read-out: MEC
[2] = test system: Colletotrichum gloeosporioides; test: Fungitoxicity against Colletotrichum gloeosporioides assessed as mycelial growth inhibition at 1200 mg/L by poisoned food technique; type: functional; conditions: read-out: GI

Which results are given for CCCCCO [1-PENTANOL]?
EC50 ([1]; read-out: EC50): 2130 µg/mL; minimal effective concentration [1]: 712 µg/mL; EC50 ([1]; read-out: pEC50 (converted)): 24 mM

For CCCO [PROPANOL], which EC50 ([1]; read-out: EC50) is on record?
Its EC50 is 8980 µg/mL.

And the minimal effective concentration [1]?
Its minimal effective concentration is 4430 µg/mL.

CC(C)O [ISOPROPYL ALCOHOL] was tested. Which EC50 ([1]; read-out: EC50) did it give?
Its EC50 is 18200 µg/mL.

For C=CC(C)(O)CCC=C(C)C (stereo unspecified) [LINALOOL], which EC50 ([1]; read-out: EC50) is on record?
Its EC50 is 1090 µg/mL.

What about the EC50 ([1]; read-out: pEC50 (converted)) of the same molecule?
Its EC50 is 7.08 mM.

CC(C)(C)O [TERT-BUTANOL] was tested. Which EC50 ([1]; read-out: EC50) did it give?
Its EC50 is 17100 µg/mL.

What does the source list for CC(C)=CCCC(C)CCO (stereo unspecified) [CITRONELLOL]?
EC50 ([1]; read-out: EC50): 84 µg/mL; EC50 ([1]; read-out: pEC50 (converted)): 0.537 mM

Which EC50 ([1]; read-out: EC50) does the source give for CC(C)CO [ISOBUTANOL] here?
The EC50 was 8200 µg/mL.

Which EC50 ([1]; read-out: EC50) does the source give for CC1CCC(C(C)C)C(O)C1 (stereo unspecified) [MENTHOL] here?
The EC50 was 452 µg/mL.

What about the EC50 ([1]; read-out: pEC50 (converted)) of the same molecule?
The EC50 was 2.88 mM.

CO [METHYL ALCOHOL] was tested. Which EC50 ([1]; read-out: EC50) did it give?
The EC50 was 24700 µg/mL.

And the minimal effective concentration [1]?
The minimal effective concentration was 8000 µg/mL.

What does the source list for CCCCO [BUTYL ALCOHOL]?
EC50 ([1]; read-out: EC50): 3690 µg/mL; minimal effective concentration [1]: 910 µg/mL; EC50 ([1]; read-out: pEC50 (converted)): 50.1 mM

With CCCCCCCO [1-HEPTANOL] as the molecule, how does the EC50 ([1]; read-out: EC50) read?
The EC50 was 546 µg/mL.

What about the minimal effective concentration [1] of the same molecule?
The minimal effective concentration was 182 µg/mL.

What about the EC50 ([1]; read-out: pEC50 (converted)) of the same molecule?
The EC50 was 4.68 mM.

With CC(C)=CCC/C(C)=C/CO [GERANIOL] as the molecule, how does the EC50 ([1]; read-out: EC50) read?
Its EC50 is 100 µg/mL.

And the EC50 ([1]; read-out: pEC50 (converted))?
The EC50 was 0.646 mM.

How did the EC50 ([1]; read-out: EC50) turn out when C=C[C@H](O)CCCCC was run?
Its EC50 is 1290 µg/mL.

And the EC50 ([1]; read-out: pEC50 (converted))?
Its EC50 is 10 mM.

For CCCCCCCCCCO [DECANOL], which EC50 ([1]; read-out: EC50) is on record?
Its EC50 is 112 µg/mL.

What about the minimal effective concentration [1] of the same molecule?
Its minimal effective concentration is 52 µg/mL.

What about the EC50 ([1]; read-out: pEC50 (converted)) of the same molecule?
The EC50 was 0.708 mM.

How did the EC50 ([1]; read-out: EC50) turn out when CC(C)CCO [3-METHYLBUTANOL] was run?
The EC50 was 3710 µg/mL.

What about the EC50 ([1]; read-out: pEC50 (converted)) of the same molecule?
Its EC50 is 41.7 mM.

How did the EC50 ([1]; read-out: EC50) turn out when OCc1ccccc1 [BENZYL ALCOHOL] was run?
The EC50 was 1180 µg/mL.

What about the EC50 ([1]; read-out: pEC50 (converted)) of the same molecule?
The EC50 was 11 mM.

How did the EC50 ([1]; read-out: EC50) turn out when CCO [ALCOHOL] was run?
Its EC50 is 17700 µg/mL.

What about the minimal effective concentration [1] of the same molecule?
The minimal effective concentration was 5490 µg/mL.

How did the EC50 ([1]; read-out: EC50) turn out when CC(C)[C@@H]1CC[C@@H](C)C[C@@H]1O [(+) NEOMENTHOL] was run?
Its EC50 is 488 µg/mL.

And the EC50 ([1]; read-out: pEC50 (converted))?
Its EC50 is 3.09 mM.

What does the source list for CCCCCCO [1-HEXANOL]?
EC50 ([1]; read-out: EC50): 1270 µg/mL; minimal effective concentration [1]: 772 µg/mL; EC50 ([1]; read-out: pEC50 (converted)): 12 mM

What does the source list for CCCCCCCCO [OCTANOL]?
EC50 ([1]; read-out: EC50): 298 µg/mL; minimal effective concentration [1]: 87 µg/mL; EC50 ([1]; read-out: pEC50 (converted)): 2.29 mM

How did the EC50 ([1]; read-out: EC50) turn out when CCCCCCCCCCCCCCCCO [CETYL ALCOHOL] was run?
Its EC50 is greater than 1200 µg/mL.

And the EC50 ([1]; read-out: pEC50 (converted))?
Its EC50 is greater than 5.25 mM.

And the inhibition of growth at 1200 µg/mL [2]?
The inhibition of growth at 1200 µg/mL was 5%.

For CCCCCCCCCCCCCCCCCCO [CETOSTEARYL ALCOHOL], which EC50 ([1]; read-out: EC50) is on record?
The EC50 was greater than 225 µg/mL.

And the minimal effective concentration [1]?
The minimal effective concentration was greater than 225 µg/mL.

And the EC50 ([1]; read-out: pEC50 (converted))?
The EC50 was greater than 1.26 mM.

How did the EC50 ([1]; read-out: EC50) turn out when OCCc1ccccc1 [PHENYLETHYL ALCOHOL] was run?
Its EC50 is 1000 µg/mL.

What about the EC50 ([1]; read-out: pEC50 (converted)) of the same molecule?
Its EC50 is 8.13 mM.
